Assays:
[1] = system: CHO MHG#4a cells; assay: Micronucleation induction in CHO cells, fluorescence-microscopic observation; format: cell-based, Chinese hamster; conditions: 72 hours, paclitaxel 0-1920 nM, reversine 0-12288 nM
Description: Ninety six conditions, which were designed by combinations of paclitaxel (0 nM, 96 nM, 192 nM, 384 nM, 768 nM, 1152 nM, 1536 nM, 1920 nM) and reversine (0 nM, 192 nM, 384 nM, 768 nM, 1536 nM, 3072 nM, 4608 nM, 6144 nM, 7680 nM, 9216 nM, 10752 nM, 12288 nM), were assigned to the wells. Culture was carried out at 37° C. in the condition of 5% CO2 for 72 hours.
After micronucleation induction, the micronucleation induction rates were compared based on observation by fluorescence microscopy.

[2] = system: Human iPS cells; assay: Micronucleation induction in human iPS cells, microscopic observation; format: cell-based; conditions: 48 hours, MAS 0.2 μg/mL compared to colcemid 0.25 μg/mL, paclitaxel 20-400 nM, reversine 0-1500 nM added
Description: Human iPS cells were seeded to a 6-well plate previously coated with 0.5 μg/cm^2 Laminin™-511 (Nippi. Inc.) at a density of 5×10^5 cells per well, and 10 μM Y-27632 was added. The human iPS cells were incubated at 37° C. in the condition of 5% CO2 for 24 hours. For a micronucleation induction experiment, 22 conditions in total were designed based on treatments with colcemid 0.25 μg/mL, MAS 0.2 μg/mL or paclitaxel (20 nM, 40 nM, 60 nM, 100 nM, 400 nM) with the addition of reversine (no addition, 500 nM, 1000 nM, 1500 nM) during the treatments, and the cells were cultured at 37° C. in the condition of 5% CO2 for 48 hours.
After micronucleation induction, the micronucleation induction rates were compared based on microscopic observation.

[3] = system: Human immortalized mesenchymal stem cells (hiMSC); assay: Micronucleation induction in human immortalized mesenchymal stem cells, DAPI staining; format: cell-based; conditions: 48 hours
Description: Human immortalized mesenchymal stem cells (hiMSC: provided by Dr. Toguchida, Kyoto University) were seeded in individual wells of a 6-well plate at a density of 5×10^5 cells per well and cultured at 37° C. in the condition of 5% CO2 for 24 hours. For the micro nucleation induction experiment, 26 conditions in total were designed based on treatments with colcemid (0.05 μg/mL, 0.1 μg/mL, 0.2 μg/mL), MAS (0.1 μg/mL, 0.2 μg/mL, 0.4 μg/mL) and paclitaxel (0.8 nM, 4 nM, 20 nM, 100 nM, 400 nM), with the addition of reversine (no addition, 500 nM, 1000 nM, 1500 nM) during the treatments, and the cells were cultured at 37° C. in the condition of 5% CO2 for 48 hours.
In order to observe living cells after micronucleation induction, the cells were fixed with 4% paraformaldehyde and stained with DAPI (concentration: 1 μg/mL) for 15 minutes. The fixed cells were observed by fluorescence microscopy and the micronuclear formation induction rates were compared. Whether or not micronuclei were formed in individual cells was observed and the results are shown in a figure (FIG. 2).

| Structure (SMILES) | micronucleation rate [1] | micronucleation induction rate [2] | micronucleation induction, usefulness of agent [3] |
| --- | --- | --- | --- |
| CC(=O)O[C@H]1C(=O)[C@@]2(C)[C@H]([C@H](OC(=O)c3ccccc3)[C@]3(O)C[C@H](OC(=O)[C@H](O)[C@@H](NC(=O)c4ccccc4)c4ccccc4)C(C)=C1C3(C)C)[C@]1(OC(C)=O)CO[C@@H]1C[C@@H]2O [paclitaxel] | micronucleation rate increases in a concentration dependent manner | micronucleation rate increases in a concentration dependent manner | effective |
| c1nc2nc(Nc3ccc(N4CCOCC4)cc3)nc(NC3CCCCC3)c2[nH]1 [reversine] | micronucleation rate increases in a concentration dependent manner | useful | useful |
